Results as given in patent publication EP4635969A1, “NOVEL GLUCOCORTICOID, METHOD FOR PREPARING SAME, AND USE THEREOF” (Tianjin Pharmaceutical Biotechnology Co., Ltd., priority 2022, dated 2024).

Target: T1, glucocorticoid receptor (GR) (Homo sapiens, UniProt P04150)
T1 sequence (P04150 521-777): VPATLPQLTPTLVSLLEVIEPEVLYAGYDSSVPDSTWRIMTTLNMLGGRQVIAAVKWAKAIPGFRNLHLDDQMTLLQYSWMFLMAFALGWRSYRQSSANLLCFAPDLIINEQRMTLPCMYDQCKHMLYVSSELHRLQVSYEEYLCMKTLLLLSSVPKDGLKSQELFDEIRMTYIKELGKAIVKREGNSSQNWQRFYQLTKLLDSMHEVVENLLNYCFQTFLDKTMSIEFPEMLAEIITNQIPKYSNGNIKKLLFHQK
Test: Assay for agonist activity on glucocorticoid receptor (luciferase reporter, HEK293 cells transfected with pBIND-GR plasmid)
Format: cell-based
Settings: HEK293 cells transfected with pBIND-GR, luciferase signal; read-out: GR agonist EC50
Description: Pharmacological Example 1: Assay for Agonist Activity on Glucocorticoid Receptor (GR)
The test compounds were subjected to a 4-fold serial dilution starting from an initial concentration of 10 µ M, generating a 10-point concentration gradient with duplicate wells for each concentration. The blank control consisted of 0.1 % DMSO.
The HEK293 stable cell line […] transfected with glucocorticoid receptor (GR) (ICE Bioscience, Lot No. TYP-20220519) was cultured in Dulbecco's Modified Eagle Medium (DMEM) supplemented with 10% fetal bovine serum (FBS) and 200 µ g/ml Hygromycin B in a cell incubator containing 5% CO2 at 37 °C. The spent medium was aspirated and the cells were washed once with phosphate-buffered saline (PBS). Then, 1 mL of TrypLE™ Express solution was added, and the cells were incubated at 37 °C for approximately 2 min. When the cells detached from the bottom of the cell culture dish, approximately 5 mL of pre-warmed complete medium at 37 °C was added. The cell suspension was gently pipetted with a pipette to dissociate clumped cells. The cell suspension was transferred to a sterile centrifuge tube and centrifuged at 1000 rpm for 5 min to pellet the cells for experiments or subculture.
HEK293 cells were digested and seeded into 6-cm culture dishes. The pBIND-GR plasmid was transfected into the HEK293 cells using a transfection reagent, resulting in HEK293 cells successfully transfected with the pBIND-GR plasmid. The cells were resuspended in phenol red-free DMEM medium containing 5% charcoal-stripped serum, counted, and then seeded into 96-well plates. The test compounds were added, and the plates were then incubated in an incubator. The luminescence signal values were measured using a multimode microplate reader following the instructions of the luciferase assay kit. The EC50 values of each test compound were calculated using the nonlinear fitting formula with GraphPad Prism 8.0 software.

SMILES | EC50 [nM]
C[C@]12C=CC(=O)C=C1CC[C@@H]1[C@@H]2[C@@H](O)C[C@@]2(C)[C@H]1C[C@H]1OC(c3ccc(COC4COC(=O)C4)cc3)O[C@]12C(=O)CO (stereo partly drawn) [Compound 31, (6aR,6bS, 7S,8aS,8bS,11aR,12aS,12bS)-7-Hydroxy-8b-(2-hydroxyacetyl)-6a,8a-dimethyl-10-(4-(( (5-oxotetrahydrofuran-3-yl)oxy)methyl)phenyl)-1,2,6a,6b,7,8,8a,8b,11a,12,12a,12b-dodecahydro-4H-naphtho[2',1':4,5]indeno[1,2-d][1,3]dioxol-4-one] | 8.13
C[C@]12C=CC(=O)C=C1CC[C@H]1[C@@H]3C[C@H]4OC(c5ccc(C[S+]([O-])C6CCOC6=O)cc5)O[C@@]4(C(=O)CO)[C@@]3(C)C[C@H](O)[C@@]12Cl (stereo partly drawn) [Compound 57, (6aS,6bR,7S,8aS,8bS,11aR,12aS,12bS)-6b-Chloro-7-hydroxy-8b-(2-hydroxyacetyl)-6a,8a-dimethyl-10-(4-(((2-oxotetrahydrofuran-3-yl)sulfinyl)methyl)phenyl)-1,2,6a,6b,7,8,8a,8b,11a,12,12a,12b-dodecahydro-4H-naphtho[2',1':4,5]indeno[1,2-d][1,3]dioxol-4-one] | 0.86
C[C@]12C=CC(=O)C=C1CC[C@H]1[C@@H]3C[C@H]4OC(c5ccc(C[S+]([O-])C6CCOC6=O)cc5)O[C@@]4(C(=O)CO)[C@@]3(C)C[C@H](O)[C@@]12F (stereo partly drawn) [Compound 56, (6aS,6bR,7S,8aS,8bS,11aR,12aS,12bS)-6b-Fluoro-7-hydroxy-8b-(2-hydroxyacetyl)-6a,8a-dimethyl-10-(4-(((2-oxotetrahydrofuran-3-yl)sulfinyl)methyl)phenyl)-1,2,6a,6b,7,8,8a,8b,11a,12,12a,12b-dodecahydro-4H-naphtho[2',1':4,5]indeno[1,2-d][1,3]dioxol-4-one] | 1.56
C[C@]12C=CC(=O)C=C1CC[C@@H]1[C@@H]2[C@@H](O)C[C@@]2(C)[C@H]1C[C@H]1OC(c3ccc(COC4CCOC4=O)cc3)O[C@]12C(=O)CO (stereo partly drawn) [Compound 28, (6aR,6bS, 7S,8aS,8bS,11aR,12aS,12bS)-7-Hydroxy-8b-(2-hydroxyacetyl)-6a,8a-dimethyl-10-(4-(( (2-oxotetrahydrofuran-3-yl)oxy)methyl)phenyl)-1,2,6a,6b,7,8,8a,8b,11a,12,12a,12b-dodecahydro-4H-naphtho[2',1':4,5]indeno[1,2-d][1,3]dioxol-4-one] | 4.24
C[C@]12C=CC(=O)C=C1[C@@H](F)C[C@H]1[C@@H]3C[C@H]4OC(c5ccc(CNC6COC(=O)C6)cc5F)O[C@@]4(C(=O)CO)[C@@]3(C)C[C@H](O)[C@@]12F (stereo partly drawn) [Compound 12, (2S,6aS,6bR,7S,8aS,8bS,11aR,12aS,12bS)-2,6b-Difluoro-10-(2-fluoro-4-(((5-oxotetrahydrofuran-3-yl)amino)methyl)phenyl)-7-hydroxy-8b-(2-hydroxyacetyl)-6a,8a-dimethyl-1,2,6a,6b,7,8,8a,8b,1 1a,12,12a,12b-dodecahydro-4H-naphtho[2',1':4,5]indeno[1,2-d][1,3]dioxol-4-one] | 4.06
C[C@]12C=CC(=O)C=C1CC[C@H]1[C@@H]3C[C@H]4OC(c5ccc(COC6COC(=O)C6)cc5)O[C@@]4(C(=O)CO)[C@@]3(C)C[C@H](O)[C@@]12Cl (stereo partly drawn) [Compound 25, (6aS,6bR,7S,8aS,8bS,11aR,12aS,12bS)-6b-Chloro-7-hydroxy-8b-(2-hydroxyacetyl)-6a,8a-dimethyl-10-(4-(((5-oxotetrahydrofuran-3-yl)oxy)methyl)phenyl)-1,2,6a,6b,7,8,8a,8b,11a,12,12a,12b-do decahydro-4H-naphtho[2',1':4,5]indeno[1,2-d][1,3]dioxol-4-one] | 1.3
C[C@]12C=CC(=O)C=C1CC[C@@H]1[C@@H]2[C@@H](O)C[C@@]2(C)[C@H]1C[C@H]1OC(c3ccc(CNC4CCOC4=O)cc3)O[C@]12C(=O)CO (stereo partly drawn) [Compound 30, (6aR,6bS, 7S,8aS,8bS,11aR,12aS,12bS)-7-Hydroxy-8b-(2-hydroxyacetyl)-6a,8a-dimethyl-10-(4-(( (2-oxotetrahydrofuran-3-yl)amino)methyl)phenyl)-1,2,6a,6b,7,8,8a,8b,11a,12,12a,12b-dodecahydr o-4H-naphtho[2',1':4,5]indeno[1,2-d][1,3]dioxol-4-one] | 7.2
C[C@]12C=CC(=O)C=C1CC[C@H]1[C@@H]3C[C@H]4OC(c5ccc(COC6COC(=O)C6)cc5)O[C@@]4(C(=O)CO)[C@@]3(C)C[C@H](O)[C@@]12F (stereo partly drawn) [Compound 19, (6aS,6bR,7S,8aS,8bS,11aR,12aS,12bS)-6b-Fluoro-7-hydroxy-8b-(2-hydroxyacetyl)-6a,8a-dimethyl-10-(4-(((5-oxotetrahydrofuran-3-yl)oxy)methyl)phenyl)-1,2,6a,6b,7,8,8a,8b,11a,12,12a,12b-do decahydro-4H-naphtho[2',1':4,5]indeno[1,2-d][1,3]dioxol-4-one] | 0.91
C[C@]12C=CC(=O)C=C1CC[C@H]1[C@@H]3C[C@H]4OC(c5ccc(OC6CCOC6=O)cc5)O[C@@]4(C(=O)CO)[C@@]3(C)C[C@H](O)[C@@]12F (stereo partly drawn) [Compound 40, (6aS,6bR,7S,8aS,8bS,11aR,12aS,12bS)-6b-Fluoro-7-hydroxy-8b-(2-hydroxyacetyl)-6a,8a-dimethyl-10-(4-((2-oxotetrahydrofuran-3-yl)oxy)phenyl)-1,2,6a,6b,7,8,8a,8b,11a,12,12a,12b-dodecahydr o-4H-naphtho[2',1':4,5]indeno[1,2-d][1,3]dioxol-4-one] | 30.7
C[C@]12C=CC(=O)C=C1[C@@H](F)C[C@H]1[C@@H]3C[C@H]4OC(c5ccc(CS(=O)(=O)C6CCOC6=O)cc5)O[C@@]4(C(=O)CO)[C@@]3(C)C[C@H](O)[C@@]12F (stereo partly drawn) [Compound 58, (2S,6aS,6bR,7S,8aS,8bS,11aR,12aS,12bS)-2,6b-Difluoro-7-hydroxy-8b-(2-hydroxyacetyl)-6a,8a-dimethyl-10-(4-(((2-oxotetrahydrofuran-3-yl)sulfonyl)methyl)phenyl)-1,2,6a,6b,7,8,8a,8b,11a,12, 12a,12b-dodecahydro-4H-naphtho[2',1':4,5]indeno[1,2-d][1,3]dioxol-4-one] | 3.67
C[C@]12C=CC(=O)C=C1[C@@H](F)C[C@H]1[C@@H]3C[C@H]4OC(C5CCC(NC(=O)C6COC(=O)C6)CC5)O[C@@]4(C(=O)CO)[C@@]3(C)C[C@H](O)[C@@]12F (stereo partly drawn) [Compound 3, N-(4-((2S,6aS,6bR,7S,8aS,8bS,11aR,12aS,12bS)-2,6b-Difluoro-7-hydroxy-8b-(2-hydroxyacetyl)-6a,8a-dimethyl-4-oxo-2,4,6a,6b,7,8,8a,8b,11a,12,12a,12b-dodecahydro-1H-naphtho[2',1':4,5]indeno[1,2-d][1,3]dioxol-10-yl)cyclohexyl)-5-oxotetrahydrofuran-3-carboxamide] | 17.6
